Results reported in US7531557B2, “Diaryl ethers as opioid receptor antagonists” (Eli Lilly and Company, priority 2002, dated 2009).

How the values were obtained:
Diet Induced Obese Rat = assay: Indirect calorimetry assay (food consumption, energy balance); format: in vivo; settings: for Energy Balance Diet Induced Obese Rat: test dose 3 mg/kg, energy balance = caloric intake minus utilization
Experimental: Indirect Calorimetry Assay
Twenty-four-hour energy expenditure (EE) and respiratory quotient (RQ) were measured by indirect calorimetry using an open circuit calorimetry system (Oxymax, Columbus Instruments Int. Corp., USA). RQ is the ratio of the volume of CO2 produced (VCO2) to the volume of O2 consumed (VO2). EE was calculated as the product of calorific value of oxygen (CV) and VO2 per kilogram of body weight, where CV=3.815+1.232 (RQ). Total calories expended were calculated to determine daily fuel utilization. To calculate the proportion of protein, fat and carbohydrate that is used during that 24-hour period, we used Flatt's proposal (see, Flatt J P 1991 Assessment of daily and cumulative carbohydrate and fat balances in mice. J Nutr Biochem 2:193-202.) and formulae as well as other derived constants (see Elia M, Livesey G 1992 Energy expenditure and fuel selection in biological systems: the theory and practice of calculations based on indirect calorimetry and tracer methods. World Rev Nutr Diet 70:68-131.). Food consumption over the 24-hour period was also measured. […] Results obtained for a sample of compounds of the invention with the indirect calorimetry assay are shown below in Table 4.

Rat = assay: Acute feeding assay (Rat Obesity assay); format: in vivo
Description: Acute Feeding Assay (Rat Obesity Assay)
The efficacy of compounds of the present invention has been further verified by the results of a Rat Obesity assay shown in Table 3.

[1] = tested on: mu, delta and kappa receptors in rat striatum/nucleus accumbens; assay: Ex-vivo receptor binding of 3H-diprenorphine in rat brain after oral dosing; settings: 7 mg/kg p.o., 6 hours after administration, striatum/nucleus accumbens homogenate, versus vehicle
[2] = tested on: dietary induced obese rats; settings: cited from earlier work
[3] = former clinical trial candidate, development discontinued; cited from earlier work

| Molecule | Inhibition of Feeding Diet Induced Obese Rat Minimum Effective Dose (MED) (Diet Induced Obese Rat; p.o., lowest dose with food consumption over 24 hours significantly different from vehicle) | Energy Balance Diet Induced Obese Rat (Diet Induced Obese Rat; p.o.) | Doses in ug/kg to achieve effective inhibition (Rat) | Ex Vivo Binding [3H]-Diprenorphine % Inhibition of at 6 hours 7 mg/kg of test compound [1] | minimal effective dose (Diet Induced Obese Rat; Rattus norvegicus, po, lowest dose with food consumption over 24 hours significantly different from vehicle, read-out: Inhibition of Feeding Diet Induced Obese Rat Minimum Effective Dose (MED)) | energy balance and total body mass ([2]; chronic treatment, dietary induced obese rats fed a high fat diet) | food intake ([2]; oral administration, acute and chronic treatment in rats) | human oral bioavailability [3] |
| --- | --- | --- | --- | --- | --- | --- | --- | --- |
| 4-(4-Pentylaminomethyl-phenoxy)-benzamide [Example 290] | 3 mg/kg | -65 kcal/kg/day | 3 µg/kg | – | – | – | – | – |
| C[C@H]1CN(CC[C@H](O)C2CCCCC2)CC[C@@]1(C)c1cccc(O)c1 [LY255582, reference compound] | – | -36 kcal/kg/day | – | >40% | 1 mg/kg | sustained negative energy balance leading to a decrease in total body mass | robust reductions in food intake | lack of satisfactory human oral bioavailability |
